Measured values: US20200107568A1, “METHOD FOR REDUCING LINGERING SWEET AFTERTASTE” (SUNTORY HOLDINGS LIMITED, priority 2017, published 2020)

Target: T1, taste receptor (Homo sapiens, UniProt Q7RTX0+Q8TE23)
T1 construct: endogenous in cells; host or cells: taste cells in the mouths of human panelists (in vivo tasting test)
T1 sequence (Q8TE23 20-839): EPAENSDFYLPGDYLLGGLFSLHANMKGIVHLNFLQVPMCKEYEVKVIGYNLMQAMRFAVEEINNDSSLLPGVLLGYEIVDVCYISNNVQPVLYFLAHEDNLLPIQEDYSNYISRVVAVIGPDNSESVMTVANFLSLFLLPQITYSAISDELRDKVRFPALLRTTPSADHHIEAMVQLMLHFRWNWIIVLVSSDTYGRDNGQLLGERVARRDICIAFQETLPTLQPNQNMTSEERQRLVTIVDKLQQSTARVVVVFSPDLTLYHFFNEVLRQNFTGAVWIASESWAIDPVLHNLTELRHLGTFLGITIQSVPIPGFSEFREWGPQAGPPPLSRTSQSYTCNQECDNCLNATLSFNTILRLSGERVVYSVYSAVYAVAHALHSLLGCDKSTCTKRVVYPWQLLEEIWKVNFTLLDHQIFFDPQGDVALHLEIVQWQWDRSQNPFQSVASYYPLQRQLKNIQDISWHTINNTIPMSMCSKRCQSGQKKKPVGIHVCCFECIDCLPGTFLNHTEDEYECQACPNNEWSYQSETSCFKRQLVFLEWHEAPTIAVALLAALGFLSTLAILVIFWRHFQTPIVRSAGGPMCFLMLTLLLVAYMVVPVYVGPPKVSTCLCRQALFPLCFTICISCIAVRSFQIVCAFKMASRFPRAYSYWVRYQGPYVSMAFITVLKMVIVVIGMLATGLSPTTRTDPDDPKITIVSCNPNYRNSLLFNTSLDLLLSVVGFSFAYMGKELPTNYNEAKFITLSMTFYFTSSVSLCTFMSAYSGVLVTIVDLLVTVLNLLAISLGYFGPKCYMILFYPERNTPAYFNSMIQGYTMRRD
T1 sequence (Q7RTX0 21-852): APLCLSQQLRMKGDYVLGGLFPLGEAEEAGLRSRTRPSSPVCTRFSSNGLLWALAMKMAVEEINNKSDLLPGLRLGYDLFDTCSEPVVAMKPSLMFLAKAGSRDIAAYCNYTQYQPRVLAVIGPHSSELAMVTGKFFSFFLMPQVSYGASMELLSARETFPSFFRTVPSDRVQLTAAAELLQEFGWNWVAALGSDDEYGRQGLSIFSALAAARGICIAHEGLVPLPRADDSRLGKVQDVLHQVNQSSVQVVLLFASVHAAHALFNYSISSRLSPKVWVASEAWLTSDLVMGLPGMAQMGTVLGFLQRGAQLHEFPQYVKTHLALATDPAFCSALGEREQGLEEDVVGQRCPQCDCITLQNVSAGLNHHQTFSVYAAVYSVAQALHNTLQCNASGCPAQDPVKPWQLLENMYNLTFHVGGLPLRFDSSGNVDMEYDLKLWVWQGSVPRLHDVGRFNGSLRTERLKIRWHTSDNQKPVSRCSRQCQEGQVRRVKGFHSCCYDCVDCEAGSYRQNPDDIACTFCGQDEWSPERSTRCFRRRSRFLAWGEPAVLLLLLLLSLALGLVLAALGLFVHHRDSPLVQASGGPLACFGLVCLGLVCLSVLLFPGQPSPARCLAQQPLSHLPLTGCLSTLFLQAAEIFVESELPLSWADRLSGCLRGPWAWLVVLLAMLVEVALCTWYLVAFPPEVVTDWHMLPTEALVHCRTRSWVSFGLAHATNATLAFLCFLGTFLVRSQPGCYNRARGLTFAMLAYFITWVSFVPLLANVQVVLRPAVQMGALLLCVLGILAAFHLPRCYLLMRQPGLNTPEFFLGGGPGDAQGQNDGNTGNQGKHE
Test: Evaluation of sweet lingering by sensory panel, VAS sweetness intensity rating
Assay type: in vivo
Conditions: with respect to rebaudioside D (reference solution α1, 593 ppm); blend 1:1; N=4; found/theoretical index minus 1
Description: (1) A reference solution α (a beverage containing only a high-intensity sweetener as a sweetener), a reference solution β (a beverage containing another sweetener and having the same sweetness intensity as the reference solution α), and a sample solution γ (a beverage composed of a mixture of the reference solutions α and β at a predetermined ratio as a sample solution) are prepared in individual cups. (2) The mouth is rinsed thoroughly with water and emptied. This rinsing process is repeated four times. (3) A defined amount (10 ml) of the reference solution α, or β, or the sample solution γ is put in the mouth in one breath, and spit out after 5 sec. […]
A sweet lingering was measured by the above-described method of with respect to each of 3 solutions of a reference solution α, a reference solution β, and a sample solution γ composed thereof, which were adjusted to the same sweetness intensity. The order of the measurements was determined randomly for each evaluator. Next, the theoretical value of the sweet lingering of a sample solution γ is determined from the blend ratio (A:B) of the reference solution α to the reference solution β. […]
Each panel evaluated the respective sweet lingering of the reference solutions α1, and β1, and the sample solution γ1 by the above-described method. […]

Compound	Effect of reducing a sweet lingering [%]
O=C(CO)[C@@H](O)[C@H](O)[C@H](O)CO [fructose]	7
thaumatin	43
